Source: patent US9169217B2, “Arylalkyl esters of 4-amino-6-(substituted phenyl)-picolinates and 6-amino-2-(substituted phenyl)-pyrimidinecarboxylates and their use as selective herbicides for crops” (Dow AgroSciences LLC, priority 2011, dated 2015)

Assays:
[1] = tested on: Echinochloa crus-galli (L.) P.BEAUV. (barnyardgrass); assay: In-water applied herbicidal activity in transplanted paddy rice (Example 17); format: in vivo; settings: Echinochloa crus-galli, 504 h, rice cropping systems, in-water applied (paddy), 21 DAA, may represent multiple trials, read-out: Visual Injury (%) ECHCG; for pest or weed control at 17.5 g/ha: 17.5 g ae/ha; for pest or weed control at 35 g/ha: 35 g ae/ha
Method: (§1) Weed seeds or nutlets of the desired test plant species were planted in puddled soil (mud) prepared by mixing a non-sterilized mineral soil (28 percent silt, 18 percent clay, and 54 percent sand, with a pH of about 7.3 to 7.8 and an organic matter content of about 1.0 percent) and water at a ratio of 100 kilograms (kg) of soil to 19 liters (L) of water. The prepared mud was dispensed in 250 mL aliquots into 480 mL non-perforated plastic pots with a surface area of 91.6 cm^2 leaving a headspace of 3 cm in each pot. Rice seeds were planted in Sun Gro MetroMix 306 planting mixture, which typically has a pH of 6.0 to 6.8 and an organic matter content of about 30 percent, in plastic plug trays. Seedlings at the second or third leaf stage of growth were transplanted into 650 mL of mud contained in 960 mL non-perforated plastic pots with a surface area of 91.6 cm^2 four days prior to herbicide application. The paddy was created by filling the 3 cm headspace of the pots with water. When required to ensure good germination and healthy plants, a fungicide treatment and/or other chemical or physical treatment was applied. The plants were grown for 4-14 d in a greenhouse with an approximate 14-h photoperiod which was maintained at about 29° C. during the day and 26° C. during the night. Nutrients were added as Osmocote (17:6:10, Nitrogen:Phosphorus:Potassium (N:P:K)+minor nutrients) at 2 grams (g) per cup. Water was added on a regular basis to maintain the paddy flood, and supplemental lighting was provided with overhead metal halide 1000-Watt lamps as necessary. The plants were employed for testing when they reached the second or third true leaf stage.
(§2) Treatments consisted of esters of compounds 1-4, 6-33, 35-39, 41 and 42 and A-G. Compound A is methyl 4-amino-3-chloro-6-(4-chloro-3-ethoxy-2-fluorophenyl)-5-fluoropicolinate; compound B is methyl 4-amino-3-chloro-6-(4-cyclopropylphenyl)-5-fluoropicolinate; compound C is methyl 4-amino-3-chloro-6-(2,4-dichloro-3-methoxyphenyl)picolinate; compound D is methyl 6-amino-2-(4-chloro-2-fluoro-3-methoxyphenyl)-5-vinylpyrimidine-4-carboxylate; compound E is methyl 4-amino-3-chloro-6-(4-chloro-2-fluoro-3-methoxyphenyl)-5-fluoropicolinate; compound F is methyl 6-amino-2-(4-chloro-2-fluoro-3-methoxyphenyl)-5-methoxypyrimidine-4-carboxylate; and compound G is methyl 4-amino-3-chloro-6-(4-chloro-2-fluoro-3-methoxyphenyl)picolinate. Weighed amounts of technical grade compounds were placed in individual 120 mL glass vials and were dissolved in 20 mL of acetone to obtain concentrated stock solutions. […] The concentrated stock solutions obtained were diluted with 20 mL of an aqueous mixture containing 2.5% Agri-dex crop oil concentrate (v/v). The final application solutions contained 1.25% (v/v) Agri-dex crop oil concentrate. Generally, multiple concentrations were tested utilizing the same stock solution. Applications were made by injecting an appropriate amount of the application solution into the aqueous layer of the paddy. Control plants were treated in the same manner with the solvent blank.
(§3) The treated plants and control plants were placed in a greenhouse as described above and water was added as needed to maintain a paddy flood. After 3 weeks the condition of the test plants, compared with that of the untreated plants, was determined visually and scored on a scale of 0 to 100 percent where 0 corresponds to no injury and 100 corresponds to complete kill.
(§4) By applying the well-accepted probit analysis as described by J. Berkson in Journal of the American Statistical […], 48, 565 (1953) and by D. Finney in “Probit Analysis” Cambridge University Press (1952), the data gathered can be used to calculate GR50 and GR80 values, which are defined as growth reduction factors that correspond to the effective dose of herbicide required to kill or control 50 percent or 80 percent, respectively, of a target plant.

[2] = tested on: Scirpus juncoides ROXB. (Japanese bulrush); assay: as above; format: in vivo; settings: Schoenoplectiella juncoides, 504 h; rice cropping systems, in-water applied (paddy), 17.5 g ae/ha, 21 DAA; may represent multiple trials; read-out: Visual Injury (%) SCPJU
Method: as §1, §2, §3, §4

[3] = tested on: Scirpus juncoides ROXB. (Japanese bulrush); assay: Postemergence foliar-applied herbicidal activity in direct seeded rice (Example 16); format: in vivo; settings: Schoenoplectiella juncoides, post-emergence, 504 h; rice cropping systems, foliar-applied, 8.75 g ae/ha, 21 DAA; may represent multiple trials; read-out: Visual Injury (%) SCPJU
Excerpt: (§5) Seeds or nutlets of the desired test plant species were planted in a soil matrix prepared by mixing a loam soil (43 percent silt, 19 percent clay, and 38 percent sand, with a pH of about 8.1 and an organic matter content of about 1.5 percent) and river sand in an 80 to 20 ratio. The soil matrix was contained in plastic pots with a surface area of 139.7 cm^2. When required to ensure good germination and healthy plants, a fungicide treatment and/or other chemical or physical treatment was applied. The plants were grown for 10-17 d in a greenhouse with an approximate 14-h photoperiod which was maintained at about 29° C. during the day and 26° C. during the night. Nutrients and water were added on a regular basis and supplemental lighting was provided with overhead metal halide 1000-Watt lamps as necessary. The plants were employed for testing when they reached the second or third true leaf stage.
(§6) Treatments consisted of esters of compounds 1-4, 6-8, 10, 11, 13-16, 20-31, 35, 38, 41 and 42 and A-E. Compound A is methyl 4-amino-3-chloro-6-(4-chloro-3-ethoxy-2-fluorophenyl)-5-fluoropicolinate; compound B is methyl 4-amino-3-chloro-6-(4-cyclopropylphenyl)-5-fluoropicolinate; compound C is methyl 4-amino-3-chloro-6-(2,4-dichloro-3-methoxyphenyl)picolinate; compound D is methyl 6-amino-2-(4-chloro-2-fluoro-3-methoxyphenyl)-5-vinylpyrimidine-4-carboxylate; and compound E is methyl 4-amino-3-chloro-6-(4-chloro-2-fluoro-3-methoxyphenyl)-5-fluoropicolinate. Weighed amounts of technical grade compounds were placed in 25 mL glass vials and dissolved in a volume of 97:3 v/v acetone-DMSO to obtain 12× stock solutions. […] The concentrated stock solutions were added to the spray solutions so that the final acetone and DMSO concentrations were 16.2% and 0.5%, respectively. Spray solutions were diluted to the appropriate final concentrations with the addition of 10 mL of an aqueous mixture of 1.5% (v/v) Agri-dex crop oil concentrate. Generally, multiple concentrations of spray solutions were formulated and tested utilizing the same stock solution. The final spray solutions contained 1.25% (v/v) Agri-dex crop oil concentrate. Compound requirements are based upon a 12 mL application volume at a rate of 187 L/ha. Spray solutions were applied to the plant material with an overhead Mandel track sprayer equipped with 8002E nozzles calibrated to deliver 187 L/ha over an application area of 0.503 square meters (m^2) at a spray height of 18 inches (43 cm) above average plant canopy height. Control plants were sprayed in the same manner with the solvent blank.
as §3, with “watered by sub-irrigation” for “water was added as needed”, “prevent wash-off of the test compounds.” for “maintain a paddy flood.”, “weeks,” for “weeks”
as §4

[4] = tested on: Cyperus difformis L. (small-flower flatsedge); assay: as above; format: in vivo; settings: post-emergence, 504 h, rice cropping systems, foliar-applied, 8.75 g ae/ha, 21 DAA, may represent multiple trials, read-out: Visual Injury (%) CYPDI
Excerpt: as §5, §6
as §3, with “watered by sub-irrigation” for “water was added as needed”, “prevent wash-off of the test compounds.” for “maintain a paddy flood.”, “weeks,” for “weeks”
as §4

Row | Structure (SMILES) | melting point [°C] | pest or weed control at 17.5 g/ha [1] [%] | pest or weed control at 17.5 g/ha [2] [%] | pest or weed control at 8.75 g/ha [3] [%] | pest or weed control at 8.75 g/ha [4] [%] | pest or weed control at 35 g/ha [1] [%]
1 | COc1c(Cl)ccc(-c2nc(C(=O)OCc3ccc(Cl)cc3)c(Cl)c(N)c2F)c1F [Compound 2, 4-chlorobenzyl 4-amino-3-chloro-6-(4-chloro-2-fluoro-3-methoxyphenyl)-5-fluoropicolinate] | 143 | 97 | 99 | 100 | 100 | –
2 | COc1c(Cl)ccc(-c2nc(C(=O)OCc3ccc(C)cc3)c(Cl)c(N)c2F)c1F [Compound 3] | 139 | 78 | 99 | 99 | 100 | –
3 | COc1ccc(COC(=O)c2nc(-c3ccc(Cl)c(OC)c3F)c(F)c(N)c2Cl)cc1 [Compound 5] | 183 to 184 | – | – | – | – | –
4 | COc1c(Cl)ccc(-c2nc(C(=O)OCc3ccc(C(F)(F)F)cc3)c(Cl)c(N)c2F)c1F [Compound 6] | 118 to 119 | 60 | 95 | 100 | 100 | –
5 | COc1ccccc1COC(=O)c1nc(-c2ccc(Cl)c(OC)c2F)c(F)c(N)c1Cl [Compound 10] | 135 to 136 | 70 | 100 | 91 | 100 | –
6 | COc1c(Cl)ccc(-c2nc(C(=O)OCc3cccc(C)c3)c(Cl)c(N)c2F)c1F [Compound 11] | 150 | 97 | 99 | 97 | 99 | –
7 | COc1cccc(COC(=O)c2nc(-c3ccc(Cl)c(OC)c3F)c(F)c(N)c2Cl)c1 [Compound 13] | 164 to 165 | 98 | 98 | 80 | 95 | –
8 | COc1c(Cl)ccc(-c2nc(C(=O)OC(C)c3ccccc3)c(Cl)c(N)c2F)c1F (stereo not shown) [Compound 14] | – | 10 | 70 | 50 | 95 | –
9 | COc1c(Cl)ccc(-c2nc(C(=O)OCCc3ccccc3)c(Cl)c(N)c2F)c1F [Compound 15] | 84 to 85 | 30 | 70 | 90 | 100 | –
10 | COc1c(Cl)ccc(-c2cc(N)c(Cl)c(C(=O)OC(C)c3ccccc3)n2)c1F (stereo not shown) [Compound 19] | 110 to 113 | – | – | – | – | 90
11 | COc1c(Cl)ccc(-c2nc(C(=O)OCc3ccc(OC(F)(F)F)cc3)c(Cl)c(N)c2F)c1F [Compound 20, 4-trifluoromethoxybenzyl 4-amino-3-chloro-6-(4-chloro-2-fluoro-3-methoxyphenyl)-5-fluoropicolinate] | – | 50 | 0 | 100 | 100 | –
12 | COc1c(Cl)ccc(-c2cc(N)c(Cl)c(C(=O)OCCc3ccccc3)n2)c1F [Compound 37] | – | – | – | – | – | 98

More lines, main results first:

Row | melting point [°C] | Structure (SMILES) | pest or weed control at 17.5 g/ha [1] [%] | pest or weed control at 17.5 g/ha [2] [%] | pest or weed control at 8.75 g/ha [3] [%] | pest or weed control at 8.75 g/ha [4] [%] | pest or weed control at 35 g/ha [1] [%]
13 | 151 | COc1c(Cl)ccc(-c2nc(C(=O)OCc3ccc(C#N)cc3)c(Cl)c(N)c2F)c1F [Compound 4] | 95 | 95 | 80 | 80 | –
14 | 135 | COc1c(Cl)ccc(-c2nc(C(=O)OCc3ccccc3C)c(Cl)c(N)c2F)c1F [Compound 8] | 100 | 100 | 99 | 99 | –
15 | 183 to 184 | COc1c(Cl)ccc(-c2nc(C(=O)OCc3ccccc3Cl)c(Cl)c(N)c2F)c1F [Compound 9] | 100 | 100 | – | – | –
16 | 147 to 148 | COc1c(Cl)ccc(-c2nc(C(=O)OCc3cccc(Cl)c3)c(Cl)c(N)c2F)c1F [Compound 12] | 100 | 100 | – | – | –
17 | 182 | COC(=O)c1ccc(COC(=O)c2nc(-c3ccc(Cl)c(OC)c3F)c(F)c(N)c2Cl)cc1 [Compound 16] | 90 | 99 | 85 | 94 | –
18 | 100 to 108 | COc1c(Cl)ccc(-c2cc(N)c(Cl)c(C(=O)OCc3ccc(Cl)cc3)n2)c1F [Compound 18] | – | – | – | – | 100
19 | 161 | COC(=O)c1ccccc1COC(=O)c1nc(-c2ccc(Cl)c(OC)c2F)c(F)c(N)c1Cl [Compound 32] | 60 | 100 | – | – | –
